Experiment [1] concerns CD34+ human bone marrow cells (BM-HCs). Description: Relative differentiation of human bone marrow cells (CD235a expression). To be noted: 10 nm Compound 101; FIG. 4. It counts as cell-based. As for the experimental part: CD34+ human bone marrow cells (BM-HCs) were treated with various concentrations of recombinant human EPO, Compound 101, Compound 102, or control. The number of cells expressing the erythrocyte-specific marker, CD235a (glycophorin A), was measured. […] The level of expression of CD235a in cells treated with 10 nm Compound 101 was approximately 37% of the level of expression of CD235a in cells treated with 2.0 U/ml EPO.

Experiment [2] concerns GATA1. Description: Electrophoretic mobility shift assay for GATA1 in UT7 cells. It counts as cell-based, human. To be noted: 30 minute treatment. As for the experimental part: Binding of GATA1 to DNA was measured in an electrophoretic mobility shift assay for GATA1 in UT7 cells after 30 minute treatments with 1 U/ml EPO, 30 nM Compound 102, or 100 nM Compound 101.
For orientation: A gel shift assay detects complexes by their altered migration in electrophoresis.

Another experiment has as its system UT7 cells. Description: Relative cell viability of UT7 cells transfected with EPO receptor- and GATA1-specific siRNAs. It counts as cell-based, human. To be noted: 30 nM Compound 101, FIG. 7. The procedure:
UT7 cells transfected with EPO receptor- and GATA1-specific siRNAs were treated with 1 U/ml EPO, 30 nM Compound 101, or control (vehicle). The relative cell viability of the cells was measured (FIG. 7).

Another experiment deals with Erythroid cells. Description: EPO-dependent cell viability assay. The experiment is classed as cell-based. To be noted: for maximum efficacy relative to the efficacy of EPO (cell viability): erythroid cells, FIG. 3; for erythropoietic efficacy compared with EPO at typical serum concentrations: typical EPO in blood approx. 0.01 U/ml. The procedure: Erythroid cells were treated with various concentrations of recombinant human EPO, Compound 101, or Compound 102, and the viability of treated cells was measured. The maximum efficacies of Compounds 101 and 102 was approximately 40% of the efficacy of EPO, corresponding to EPO EC40 of approximately 0.02 U/ml (FIG. 3). The typical EPO concentration in blood is approximately 0.01 U/ml, with a range from about 0.006 U/ml to about 0.032 U/ml.

The subject of experiment [3] is PI3K. Kind of experiment: Phosphorylation of PI3K in UT7 cells. It counts as cell-based, human. To be noted: 60 minutes, FIG. 5B. The procedure: (§1) UT7 cells were treated with 10 nM Compound 102, 100 nM Compound 102, or control (vehicle). Phosphorylation of the EPO receptor was measured after 15 minutes or 45 minutes of treatment with Compound 101 or control (vehicle) (FIG. 5A). Phosphorylation of PI3K was measured after 60 minutes of treatment with EPO, Compound 101, or control (vehicle) (FIG. 5B). Phosphorylation of GATA1 was measured after 60 minutes treatment with Compound 102, EPO or control (vehicle) (FIG. 5C).

The subject of experiment [4] is CD34+ human bone marrow cells. Kind of experiment: BFU-E colony formation in human CD34+ bone marrow cells. The experiment is classed as cell-based. To be noted: Compound 101 10 nM. As for the experimental part:
CD34+ human bone marrow cells were incubated with recombinant human EPO, Compound 101, or control. Compound 101 stimulated the formation of BFU-E colonies with partial efficacy (31%) when incubated with BM-HCs.

The target in a further experiment is T1, EPO receptor (Homo sapiens, UniProt P19235).
T1 construct: endogenous in cells; host or cells: UT7 cells
T1 sequence (P19235 25-508): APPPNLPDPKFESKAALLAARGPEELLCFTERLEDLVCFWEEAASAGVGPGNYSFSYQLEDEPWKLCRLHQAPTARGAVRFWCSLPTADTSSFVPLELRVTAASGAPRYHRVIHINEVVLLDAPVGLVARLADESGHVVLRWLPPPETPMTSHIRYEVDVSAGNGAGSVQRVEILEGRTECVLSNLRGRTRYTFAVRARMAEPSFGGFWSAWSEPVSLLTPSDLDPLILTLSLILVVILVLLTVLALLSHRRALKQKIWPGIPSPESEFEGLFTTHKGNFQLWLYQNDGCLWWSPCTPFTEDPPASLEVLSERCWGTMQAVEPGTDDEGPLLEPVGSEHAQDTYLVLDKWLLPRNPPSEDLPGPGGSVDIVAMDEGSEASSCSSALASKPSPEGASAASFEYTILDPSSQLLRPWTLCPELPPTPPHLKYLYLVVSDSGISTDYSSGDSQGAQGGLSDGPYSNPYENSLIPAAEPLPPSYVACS
T1 sequence (O60674 whole entry partner): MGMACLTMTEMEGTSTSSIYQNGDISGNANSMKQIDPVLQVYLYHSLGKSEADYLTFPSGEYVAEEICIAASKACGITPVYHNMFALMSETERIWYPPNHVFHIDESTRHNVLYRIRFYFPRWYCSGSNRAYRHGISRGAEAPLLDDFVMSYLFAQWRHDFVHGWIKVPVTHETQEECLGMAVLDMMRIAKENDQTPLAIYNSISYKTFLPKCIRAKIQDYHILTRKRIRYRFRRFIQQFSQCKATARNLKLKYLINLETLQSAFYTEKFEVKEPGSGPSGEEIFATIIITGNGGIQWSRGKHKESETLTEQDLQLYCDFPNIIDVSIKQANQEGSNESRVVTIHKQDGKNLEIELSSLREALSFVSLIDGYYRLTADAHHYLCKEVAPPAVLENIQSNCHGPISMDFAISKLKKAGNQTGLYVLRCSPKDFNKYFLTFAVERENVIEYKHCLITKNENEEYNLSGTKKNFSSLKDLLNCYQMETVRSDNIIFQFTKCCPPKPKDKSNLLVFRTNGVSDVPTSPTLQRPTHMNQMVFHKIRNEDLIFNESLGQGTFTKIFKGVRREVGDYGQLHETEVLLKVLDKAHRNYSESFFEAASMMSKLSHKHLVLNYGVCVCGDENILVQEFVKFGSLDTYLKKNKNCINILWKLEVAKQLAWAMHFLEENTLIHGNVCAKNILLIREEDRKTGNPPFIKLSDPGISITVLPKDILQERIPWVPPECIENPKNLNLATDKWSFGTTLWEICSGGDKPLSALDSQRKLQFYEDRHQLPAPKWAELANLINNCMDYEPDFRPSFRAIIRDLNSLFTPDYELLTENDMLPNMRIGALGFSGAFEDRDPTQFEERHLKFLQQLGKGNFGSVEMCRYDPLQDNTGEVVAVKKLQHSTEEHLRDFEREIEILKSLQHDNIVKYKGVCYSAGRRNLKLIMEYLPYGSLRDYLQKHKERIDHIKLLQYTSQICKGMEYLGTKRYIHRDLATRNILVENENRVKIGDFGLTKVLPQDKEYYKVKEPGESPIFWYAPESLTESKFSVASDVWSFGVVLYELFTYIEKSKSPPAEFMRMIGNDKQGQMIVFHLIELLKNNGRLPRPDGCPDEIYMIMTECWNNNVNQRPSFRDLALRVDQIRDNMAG
Description: Phosphorylation of the EPO receptor in UT7 cells. To be noted: 10 nM or 100 nM, 15 or 45 minutes, FIG. 5A. The experiment is classed as cell-based. The procedure: as §1

Experiment [5] relates to GATA1. Kind of experiment: Phosphorylation of GATA1 in UT7 cells. It counts as cell-based, human. To be noted: 60 minutes, FIG. 5C. As for the experimental part:
as §1

In the next experiment the test system is ERK/MAPK. Description: Phosphorylation of ERK/MAPK in UT7EPO cells. The experiment is classed as cell-based, human. As for the experimental part: (§2) Using human cell lines, the action of Compound 103 was determined to be dependent on the EPO receptor and involves the selective activation of the PI3K/AKT-GATA1 signaling pathway.
Experiment [6] deals with BCL2L1. Kind of experiment: BCL2L1 expression in Mo7e cells that lack EPO receptor. The experiment is classed as cell-based. To be noted: GM-CSF- and TPO-responsive human leukemia Mo7e cells that lack EPO receptor.
Experiment [7] deals with STAT5. Kind of experiment: STAT5 DNA binding in UT7EPO cells. The experiment is classed as cell-based, human. The procedure:
as §2

The test system of experiment [8] is GATA1. Description: Phosphorylation of GATA1 in UT7EPO cells. It counts as cell-based, human. The procedure:
as §2

In another experiment the test system is UT7EPO cells. Description: Apoptosis induced by EPO withdrawal / cell survival in UT7EPO cells. The experiment is classed as cell-based, human. As for the experimental part: as §2
In experiment [9] the test system is EPO responsive genes (hemoglobin α, EPO receptor, BCL2L1). Kind of experiment: Expression of EPO responsive genes in CD34 positive BM-HCs. The experiment is classed as cell-based, human.
The subject of experiment [10] is BM-HCs. Description: Lineage specificity in BM-HCs (CD41, CD15 markers). The experiment is classed as cell-based, human. As for the experimental part: (§3) In addition, Compound 103 stimulated the formation of BFU-E colonies with partial efficacy (30%) when incubated with BM-HCs for 14 days. The effect of Compound 103 on BM-HCs was specific for the erythroid lineage.

The subject of experiment [11] is BCL2L1. Description: BCL2L1 expression in UT7EPO cells. It counts as cell-based, human. As for the experimental part: as §2
The test system of experiment [12] is BM-HCs. Kind of experiment: BFU-E colony formation in BM-HCs, 14 days. To be noted: incubated with BM-HCs for 14 days. The experiment is classed as cell-based, human. As for the experimental part:
as §3

Experiment [13] has as its system CD34+ human bone marrow hematopoietic cells (BM-HCs). Description: Percentage of CD235a (glycophorin A) positive cells in CD34+ BM-HCs. It counts as cell-based.
In the next experiment the target is T2, EPOR (Homo sapiens, UniProt P19235).
T2 construct: In the human EPO-dependent cell line UT7EPO; endogenous in cells; host or cells: UT7EPO cells
T2 sequence (P19235 25-508): as the sequence (P19235 25-508) above
T2 sequence (O60674 whole entry partner): as the sequence (O60674 whole entry partner) above
Description: Phosphorylation of EPOR in UT7EPO cells. It counts as cell-based. The procedure:
as §2

Experiment [14] concerns STAT5. Kind of experiment: Phosphorylation of STAT5 in UT7EPO cells. The experiment is classed as cell-based, human. The procedure: as §2
In experiment [15] the test system is PI3K. Kind of experiment: Phosphorylation of PI3K in UT7EPO cells. It counts as cell-based, human. As for the experimental part:
as §2

Experiment [16] relates to GATA1. Description: Binding of GATA1 to DNA in UT7EPO cells. It counts as cell-based, human. The procedure:
as §2

The next experiment deals with Mo7e cells. Description: Apoptosis in Mo7e cells that lack EPO receptor. The experiment is classed as cell-based. To be noted: GM-CSF- and TPO-responsive human leukemia Mo7e cells that lack EPO receptor.

The record followed here is US20140243324A1, “USE OF HEMATOPOIETIC GROWTH FACTOR MIMETICS” (LIGAND PHARMACEUTICALS INCORPORATED, priority 2010, published 2014).

In general, EC50 refers to the midpoint of the concentration-response curve.

In the case of `CN(C)c1ccc(C(=O)N/N=C/c2ccc(Oc3ccc(/C=N/NC(=O)c4ccc(N(C)C)cc4)cc3)cc2)cc1` [Compound 101, (N′,N′″E,N′,N′″E)-N′,N′″-((Oxybis(4,1-phenylene))bis(methanylylidene))bis(4-(dimethylamino)benzohydrazide)], in experiment [1], the “level of expression of CD235a compared with cells treated with 0.01 U/ml EPO” value is “above the level of expression observed in cells treated with 0.01 U/ml EPO” and the “level of expression of CD235a relative to cells treated with 2.0 U/ml EPO” value was “approximately 37%”. For the same molecule, in the experiment with GATA1 [2] (100 nM Compound 101), the “binding of GATA1 to DNA (EMSA)” value is reported as “induce binding of GATA1 to DNA”. Besides, the “effect of EPO receptor- and GATA1-specific siRNAs on compound activity (relative cell viability)” value with UT7 cells was “blocks activity”. Further, in the experiment on Erythroid cells, the “maximum efficacy relative to the efficacy of EPO (cell viability)” value is “approximately 40%” and the “erythropoietic efficacy compared with EPO at typical serum concentrations” value is on record as “greater than would be predicted for EPO at typical serum concentrations”. Also, the “phosphorylation of PI3K” value in the experiment with PI3K [3] is reported as “stimulated phosphorylation”. In experiment [4], the “% BFU-E relative to 3 U/ml EPO” value is on record as 31% and the BFU-Es/Dish was determined as 11.

`COc1cccc(C(=O)N/N=C/c2ccc(Oc3ccc(/C=N/NC(=O)c4cccc(OC)c4)cc3)cc2)c1` [Compound 102, (N′,N′″E,N′,N′″E)-N′,N′″-((oxybis(4,1-phenylene))bis(methanylylidene))bis(3-methoxybenzohydrazide)]: at EPO receptor, the “phosphorylation of the EPO receptor” value is listed as “stimulated phosphorylation”. Besides, the “binding of GATA1 to DNA (EMSA)” value with GATA1 [2] (30 nM Compound 102) is “induce binding of GATA1 to DNA”. In the experiment on GATA1 [5], the “phosphorylation of GATA1” value is “stimulated phosphorylation”. In addition, in the experiment with Erythroid cells, the “maximum efficacy relative to the efficacy of EPO (cell viability)” value is “approximately 40%” and the “erythropoietic efficacy compared with EPO at typical serum concentrations” value is given as “greater than would be predicted for EPO at typical serum concentrations”.

With `CN(C)c1ccc(C(=O)N/N=C/c2cccc(/C=N/NC(=O)c3ccc(N(C)C)cc3)c2)cc1` [Compound 103, (N′,N′″E,N′,N′″E)-N′,N′″-(1,3-phenylenebis(methanylylidene))bis(4-(dimethylamino)benzohydrazide)], in the experiment on ERK/MAPK, the “phosphorylation of ERK/MAPK” value is “did not stimulate phosphorylation”. Also, the “stimulation of BCL2L1 expression” value with BCL2L1 [6] is listed as “did not”. The “induction of STAT5 DNA binding” value with STAT5 [7] was “did not”. The “phosphorylation of GATA1” value with GATA1 [8] is given as “stimulated the phosphorylation”. The EC50 with UT7EPO cells (Homo sapiens, UT-7/Epo, UT7EPO cells, read-out: EC50, block of apoptosis induced by EPO withdrawal) stood at 10 nM; in experiment [13] (Homo sapiens, CD34+ BM-HCs, read-out: EC50, increase of percentage of cells positive for CD235a) it was 2 nM. Further, the “activity after transfection with EPO receptor- and GATA1-specific siRNAs” value in the experiment on UT7EPO cells (UT7EPO cells) is “blocked the activity”. For the same molecule, the “effect on cell survival in presence of the PI3K inhibitor LY294002” value in the experiment with UT7EPO cells (UT7EPO cells incubated with LY294002) is “blocked the effect”. For the same molecule, the “expression of EPO responsive genes including hemoglobin α, EPO receptor and BCL2L1” value in experiment [9] is listed as “stimulated the expression”. The “percentage of BM-HCs positive for the granulocyte marker CD15” value in the experiment on BM-HCs [10] is on record as “did not increase”. Besides, in the experiment with BM-HCs [10], the “percentage of BM-HCs positive for the megakaryocyte marker CD41” value is reported as “did not increase”. Moreover, the “stimulation of the expression of BCL2L1, efficacy” value with BCL2L1 [11] is “efficacy comparable to EPO”. The “formation of BFU-E colonies, partial efficacy” value in the experiment on BM-HCs [12] was 30%. In [13] (BM-HCs), the “erythropoietic effect in combination with EPO” value is “additive to the effect of EPO”. Further, the Emax in [13] (Homo sapiens, CD34+ BM-HCs, read-out: efficacy relative to the maximal effect of EPO (3 U/ml), CD235a positive cells) came to 42%. The “efficacy compared with the normal serum EPO concentration, CD235a positive cells” value in [13] (normal serum EPO (−0.01 U/ml)) was “greater than the efficacy of the normal serum EPO concentration”. In addition, the “phosphorylation of EPOR” value on EPOR is given as “stimulated the phosphorylation”. The “phosphorylation of STAT5” value in the experiment on STAT5 [14] is given as “did not stimulate phosphorylation”. Moreover, the “phosphorylation of PI3K” value in the experiment on PI3K [15] is given as “stimulated the phosphorylation”. Also, the “binding of GATA1 to DNA” value with GATA1 [16] is “induced the binding of GATA1 to DNA”. Also, the block of apoptosis entry in the experiment on Mo7e cells was “did not block apoptosis”.
